Patent US10253049B2, “Boronic acid derivatives” (MERCK PATENT GMBH, priority 2014, dated 2019)

What was measured:
[1] = molecular target: Beta5 (purified human constitutive proteasome) (Homo sapiens, UniProt P28074); experiment: Determination of Beta5 activity (fluorescence intensity assay, Suc-LLVY-AMC); format: biochemical; settings: incubation for 20 minutes
Experimental: Determination of Beta5 Activity
Measurement of Beta5 inhibition is performed in 384 well format based on fluorescence intensity assay.
(§1) Purified human constitutive proteasome (1.25 nM) and serial diluted compounds in DMSO (range of concentrations from 30 μM to 15 pM) or controls are incubated for 20 minutes or 120 minutes (long incubation) at 25° C. in assay buffer containing 50 mM Tris pH 7.4, 0.03% SDS, 1 mM EDTA and 1% DMSO. The reaction is initiated by the addition of the fluorogenic peptide substrate, Suc-LLVY-AMC (Bachem I-1395), at a concentration of 40 μM. After 60 minutes of incubation at 37° C., fluorescence intensity is measured at λex=350 nm and λem=450 nm with a fluorescence reader (Perkin Elmer Envision reader or equivalent).
(§2) Unless indicated otherwise the results are obtained after incubation for 20 minutes.

[2] = molecular target: LMP7 (purified human immunoproteasome) (Homo sapiens, UniProt P28062); experiment: Determination of LMP7 activity (fluorescence intensity assay, Suc-LLVY-AMC); format: biochemical; settings: incubation for 20 minutes
Experimental: Determination of LMP7 Activity
Measurement of LMP7 inhibition is performed in 384 well format based on fluorescence intensity assay.
as §1, with “immunoproteasome (0.25” for “constitutive proteasome (1.25”
as §2

| SMILES | IC50 [1] [nM] | Selectivity LMP7 vs Beta5 [1] | IC50 [2] [nM] |
| --- | --- | --- | --- |
| Cc1ccc(C[C@H](NC(=O)CCN(c2ccccc2)S(C)(=O)=O)B(O)O)cc1 [Compound No. 3, [(1R)-1-[3-(N-methylsulfonylanilino)propanoylamino]-2-(p-tolyl)ethyl]boronic acid] | 50 to 500 | +++ (+++: 30 ≤ Selectivity < 50) | < 50 |
| O=C(CCS(=O)(=O)c1ccccc1)N[C@@H](Cc1coc2ccccc12)B(O)O [Compound No. 4, [(1R)-1-[3-(benzenesulfonyl)propanoylamino]-2-(benzofuran-3-yl)ethyl]boronic acid] | < 50 | +++ (+++: 30 ≤ Selectivity < 50) | < 50 |
| CCN(CCC(=O)N[C@@H](Cc1ccccc1)B(O)O)C(=O)c1ccccc1 [Compound No. 8, [(1R)-1-[3-[benzoyl(ethyl)amino]propanoylamino]-2-phenyl-ethyl]boronic acid] | 500 to 5000 | +++ (+++: 30 ≤ Selectivity < 50) | 50 to 500 |
| CC(C)N(CCC(=O)N[C@@H](Cc1ccccc1)B(O)O)C(=O)c1ccccc1 [Compound No. 9, [(1R)-1-[3-[benzoyl(isopropyl)amino]propanoylamino]-2-phenyl-ethyl]boronic acid] | 500 to 5000 | +++ (+++: 30 ≤ Selectivity < 50) | 50 to 500 |
| CCN(CCC(=O)N[C@@H](Cc1ccccc1)B(O)O)C(=O)c1ccc(C)cc1 [Compound No. 14, [(1R)-1-[3-[ethyl-(4-methylbenzoyl)amino]propanoylamino]-2-phenyl-ethyl]boronic acid] | 500 to 5000 | +++ (+++: 30 ≤ Selectivity < 50) | < 50 |
| CCN(CC(=O)N[C@@H](Cc1ccc(C)cc1)B(O)O)S(=O)(=O)c1ccccc1 [Compound No. 16, [(1R)-1-[[2-[benzenesulfonyl(ethyl)amino]acetyl]amino]-2-(p-tolyl)ethyl]boronic acid] | 50 to 500 | +++ (+++: 30 ≤ Selectivity < 50) | < 50 |
| CCc1cccc(C[C@H](NC(=O)CCCC(=O)N(C)C)B(O)O)c1 [Compound No. 18, [(1R)-1-[[5-(dimethylamino)-5-oxo-pentanoyl]amino]-2-(3-ethylphenyl)ethyl]boronic acid] | > 5000 | +++ (+++: 30 ≤ Selectivity < 50) | 500 to 5000 |
| CCN(CCC(=O)N[C@@H](Cc1ccc(C)cc1C)B(O)O)C(=O)c1ccc(C)cc1 [Compound No. 19, [(1R)-2-(2,4-dimethylphenyl)-1-[3-[ethyl-(4-methylbenzoyl)amino]-propanoylamino]-ethyl]boronic acid] | 500 to 5000 | +++++ (+++++: Selectivity ≥ 70) | < 50 |
| CCc1cccc(C[C@H](NC(=O)CCS(C)(=O)=O)B(O)O)c1 [Compound No. 20, [(1R)-2-(3-ethylphenyl)-1-(3-methylsulfonylpropanoylamino)ethyl]-boronic acid] | 500 to 5000 | +++ (+++: 30 ≤ Selectivity < 50) | 50 to 500 |
| CCc1cccc(C[C@H](NC(=O)CCCS(C)(=O)=O)B(O)O)c1 [Compound No. 21, [(1R)-2-(3-ethylphenyl)-1-(4-methylsulfonylbutanoylamino)ethyl]-boronic acid] | > 5000 | +++ (+++: 30 ≤ Selectivity < 50) | 50 to 500 |
| CCC(=O)N(CC)CC(=O)N[C@@H](Cc1ccc(C)cc1C)B(O)O [Compound No. 24, [(1R)-2-(2,4-dimethylphenyl)-1-[[2-[ethyl(propanoyl)amino]acetyl]-amino]ethyl]boronic acid] | > 5000 | +++++ (+++++: Selectivity ≥ 70) | 50 to 500 |
| CCN(CCC(=O)N[C@@H](Cc1ccc(F)cc1)B(O)O)C(=O)c1ccc(OC)cc1 [Compound No. 25, [(1R)-1-[3-[ethyl-(4-methoxybenzoyl)amino]propanoylamino]-2-(4-fluorophenyl)ethyl]boronic acid] | 500 to 5000 | ++++ (++++: 50 ≤ Selectivity < 70) | < 50 |

Continued, values first:

| IC50 [1] [nM] | Selectivity LMP7 vs Beta5 [1] | IC50 [2] [nM] | SMILES |
| --- | --- | --- | --- |
| 50 to 500 | ++++ (++++: 50 ≤ Selectivity < 70) | < 50 | CCN(CCC(=O)N[C@@H](Cc1ccc(F)cc1)B(O)O)C(=O)c1ccc(Cl)cc1 [Compound No. 26, [(1R)-1-[3-[(4-chlorobenzoyl)-ethyl-amino]propanoylamino]-2-(4-fluorophenyl)ethyl]boronic acid] |
| 50 to 500 | +++ (+++: 30 ≤ Selectivity < 50) | < 50 | CCN(CCC(=O)N[C@@H](Cc1ccc(F)cc1)B(O)O)C(=O)c1ccc(C(F)(F)F)cc1 [Compound No. 27, [(1R)-1-[3-[ethyl-[4-(trifluoromethyl)benzoyl]amino]propanoylamino]-2-(4-fluorophenyl)ethyl]boronic acid] |
| 500 to 5000 | ++++ (++++: 50 ≤ Selectivity < 70) | < 50 | CCN(CCC(=O)N[C@@H](Cc1ccc(F)cc1)B(O)O)C(=O)c1ccc(C#N)cc1 [Compound No. 28, [(1R)-1-[3-[(4-cyanobenzoyl)-ethyl-amino]propanoylamino]-2-(4-fluorophenyl)ethyl]boronic acid] |
| 500 to 5000 | +++++ (+++++: Selectivity ≥ 70) | < 50 | CCN(CC(=O)N[C@@H](Cc1ccc(C)cc1C)B(O)O)S(=O)(=O)c1ccccc1C [Compound No. 29, [(1R)-2-(2,4-dimethylphenyl)-1-[[2-[ethyl(o-tolylsulfonyl)amino]acetyl]-amino]ethyl]boronic acid] |
| 500 to 5000 | +++++ (+++++: Selectivity ≥ 70) | < 50 | CCN(CC(=O)N[C@@H](Cc1ccc(C)cc1C)B(O)O)S(=O)(=O)c1ccc(C)cc1 [Compound No. 30, [(1R)-2-(2,4-dimethylphenyl)-1-[[2-[ethyl(p-tolylsulfonyl)amino]acetyl]-amino]ethyl]boronic acid] |
| 50 to 500 | ++++ (++++: 50 ≤ Selectivity < 70) | < 50 | CCN(CC(=O)N[C@@H](Cc1ccc(C)cc1C)B(O)O)S(=O)(=O)c1cccc(C)c1 [Compound No. 31, [(1R)-2-(2,4-dimethylphenyl)-1-[[2-[ethyl(m-tolylsulfonyl)amino]-acetyl]amino]ethyl]boronic acid] |
| 50 to 500 | +++++ (+++++: Selectivity ≥ 70) | < 50 | Cc1ccc(S(=O)(=O)N(C)CC(=O)N[C@@H](Cc2ccc(C)cc2C)B(O)O)cc1 [Compound No. 32, [(1R)-2-(2,4-dimethylphenyl)-1-[[2-[methyl(p-tolylsulfonyl)amino]-acetyl]amino]ethyl]boronic acid] |
| 500 to 5000 | +++++ (+++++: Selectivity ≥ 70) | < 50 | Cc1ccc(S(=O)(=O)N(CC(=O)N[C@@H](Cc2ccc(C)cc2C)B(O)O)C(C)C)cc1 [Compound No. 33, [(1R)-2-(2,4-dimethylphenyl)-1-[[2-[isopropyl(p-tolylsulfonyl)amino]-acetyl]amino]ethyl]boronic acid] |
| 500 to 5000 | +++++ (+++++: Selectivity ≥ 70) | < 50 | CCC(=O)N(CC(=O)N[C@@H](Cc1ccc(C)cc1C)B(O)O)c1ccccc1 [Compound No. 34, [(1R)-2-(2,4-dimethylphenyl)-1-[[2-(N-propanoylanilino)acetyl]amino]-ethyl]boronic acid] |
| 50 to 500 | ++++ (++++: 50 ≤ Selectivity < 70) | < 50 | Cc1ccc(C[C@H](NC(=O)CN(c2ccccc2)S(=O)(=O)c2ccccc2)B(O)O)c(C)c1 [Compound No. 35, [(1R)-1-[[2-[N-(benzenesulfonyl)anilino]acetyl]amino]-2-(2,4-dimethylphenyl)ethyl]boronic acid] |
| > 5000 | ++++ (++++: 50 ≤ Selectivity < 70) | 50 to 500 | CCN(CC(=O)N[C@@H](Cc1ccc(C)cc1C)B(O)O)C(=O)CSC [Compound No. 36, [(1R)-2-(2,4-dimethylphenyl)-1-[[2-[ethyl-(2-methylsulfanylacetyl)-amino]acetyl]amino]ethyl]boronic acid] |
| > 5000 | +++ (+++: 30 ≤ Selectivity < 50) | 50 to 500 | CCN(CC(=O)N[C@@H](Cc1ccc(C)cc1C)B(O)O)C(=O)CCl [Compound No. 37, [(1R)-1-[[2-[(2-chloroacetyl)-ethyl-amino]acetyl]amino]-2-(2,4-dimethylphenyl)ethyl]boronic acid] |
| 500 to 5000 | +++++ (+++++: Selectivity ≥ 70) | < 50 | CN(C)C(=O)C(C(=O)N[C@@H](Cc1coc2ccccc12)B(O)O)c1ccccc1 (stereo partly drawn) [Compound No. 38, [(1R)-2-(benzofuran-3-yl)-1-[[3-(dimethylamino)-3-oxo-2-phenyl-propanoyl]amino]ethyl]boronic acid] |
